# Measured values reported in US20240239759A1, “ISOXAZOLINE COMPOSITIONS AND THEIR USE AS ANTIPARASITICS” (Intervet Inc., priority 2007, published 2024).
# Where “and” joins values, the source holds several entries; their conditions need not be identical. Equal values may be shown once.
# How the values were obtained:
# adult fleas (C. felis) = test: Efficacy against fleas on mice (Example 2A); assay type: in vivo, Ctenocephalides felis
# Description: (§1) Mice were divided into groups of three, and treated topically with 100 ppm body weight, orally with 10 mg/kg bodyweight, or subcutaneously with 10 mg/kg bodyweight of Compound 11-1, fipronil (positive control), or nothing (negative control). These mice were sedated and infested with adult fleas (C. felis) 1, 3, 6, and 24 hr after treatment. Fleas were recovered from the mice after approximately 30 minutes of feeding. The assessment of flea inhibition (% of dead and damaged fleas) was conducted 1 and 24 hr after each infestation.
# [1] = tested on: cat fleas (Ctenocephalides felis); test: Adult fleas fed on artificial membranes with spiked blood (Example 1); settings: 48 hr continuous feeding
# Description: Adult fleas (20-30) were fed on artificial membranes with blood spiked with Compound 10-1, Compound 11-1, or a positive control (fipronil) at a concentration of 100, 10, or 1 ppm. Flea efficacy was assessed after 48 hr of continuous feeding by comparing the number of killed and damaged fleas with the number of fed fleas. Flea efficacy was 100% for Compound 10-1, Compound 11-1, and fipronil at 100, 10, and 1 ppm.
# [2] = tested on: juvenile soft ticks (O. moubata); test: Efficacy against soft (Argaside) ticks on Guinea pigs (Example 2C); assay type: in vivo, Ornithodoros moubata; settings: Guinea pig, up to Day 50
# Description: (§2) Six Guinea pigs were treated orally, subcutaneously, or intraperitoneally with 10 mg/kg bodyweight of Compound 11-1 or fipronil (positive control). The Guinea pigs were locally co-infested with juvenile soft ticks (O. moubata) and bed bugs (C. lectularius) once before the treatment, and at different time points after treatment between days 2 and 50. Ten engorged ticks/bed bugs were collected to assess the percentage of killed individuals per species 24 hr after each infestation.
# (§3) For Guinea pigs treated with Compound 11-1, the ticks and bed bugs died within 1 to 5 hr following infestation up to Day 29, and within 8 to 24 hr after day 29. For Guinea pigs treated with fipronil, ticks and bed bugs died within 1 to 7 hr after infestation up to Day 29, and within 8 to 24 hr after day 29.
# [3] = Side effects in mice, flea study (Example 2A); assay type: in vivo; settings: topical 100 ppm, oral or subcutaneous 10 mg/kg
# Description: as §1
# [4] = tested on: brown dog ticks, R. sanguineus (nymphs); test: Efficacy against hard (Ixodide) ticks on Guinea pigs (Example 2D); assay type: in vivo, Rhipicephalus sanguineus; settings: all treated groups of Study 1 (100 ppm dip, 10 mg/kg oral, 10 mg/kg subcutaneous) and Study 2 (25 ppm dip, 2.5 mg/kg oral, 2.5 mg/kg subcutaneous), Day 4 to Day 8
# Description: (§4) Guinea pigs were divided into groups of three. Each group was subjected to one of the following treatments with either Compound 11-1, fipronil (positive control), or neither (negative control):
# (§5) • 1. 100 ppm body weight topical administration by animal dip • 2. 10 mg/kg body weight oral administration • 3. 10 mg/kg body weight subcutaneous administration • 4. No treatment (negative control)
# (§6) • 1. 25 ppm body weight topical administration by animal dip • 2. 2.5 mg/kg body weight oral administration • 3. 2.5 mg/kg body weight subcutaneous administration • 4. No treatment (negative control) One day before the treatment, all the Guinea pigs were infested with 100 vital juvenile (“nymph”) hard ticks (brown dog ticks, R. sanguineus). Engorged, detached nymphs were counted (eN) from Day 4 to Day 8 to calculate the efficacy of the treatments according to following formula: […]
# In addition, collected ticks were assessed for molting into the next stage.
# [5] = Side effects in Guinea pigs, hard tick studies (Example 2D); assay type: in vivo; settings: guinea pig, in vivo
# Description: as §4, §5, §6
# In the first study, 32 engorged R. sanguineus nymphs were collected from animals of the untreated negative control group. And in the second study, 75 engorged R. sanguineus nymphs were collected from animals of the untreated negative control group. […] Thus, the inhibition of engorged nymphs for both Compound 11-1 and fipronil was 100%.
# [6] = Side effects in Guinea pigs, soft tick and bed bug study (Example 2C); assay type: in vivo; settings: Guinea pigs; oral, subcutaneous or intraperitoneal 10 mg/kg
# Description: as §2
# [7] = tested on: bed bugs (C. lectularius); test: Efficacy against bed bugs on Guinea pigs (Example 2C); assay type: in vivo, Cimex lectularius; settings: Guinea pig
# Description: as §2, §3
# M. musculinus = test: Efficacy against mites on mice (Example 2B); assay type: in vivo, Myocoptes musculinus; parameters: key: “+”=low infestation rate; “++”=medium infestation rate; “+++”=high infestation rate; settings: repeated 7 days later
# Description: The mice were divided into groups of three, and treated topically with 100 ppm body weight, orally with 10 mg/kg body weight, or subcutaneously with 10 mg/kg body weight of Compound 11-1, fipronil (positive control), or nothing (negative control). This treatment was then repeated 7 days later. The infestation rate per mouse (“+”=low infestation rate, “++”=medium infestation rate, “+++”=high infestation rate) was assessed repeatedly on days 1, 6, 9, 13, and 23. Efficacy was defined as the inhibition of the mite infestation rate on treated mice relative to the negative control group.
smiles,measurement,setting,value
"N#Cc1nn(-c2c(Cl)cc(C(F)(F)F)cc2Cl)c(N)c1[S+]([O-])C(F)(F)F (centres unmarked) [fipronil, reference compound]",Flea inhibition (% of dead and damaged fleas),"adult fleas (C. felis); oral 10 mg/kg, infested 1 hr after treatment, assessed 1 hr after infestation",0-2%
same,Flea inhibition (% of dead and damaged fleas),"adult fleas (C. felis); oral 10 mg/kg, infested 1 hr after treatment, assessed 24 hr after infestation",3.3%
same,Flea inhibition (% of dead and damaged fleas),"adult fleas (C. felis); oral 10 mg/kg, infested 3 hr after treatment, assessed 1 hr after infestation",0-2%
same,Flea inhibition (% of dead and damaged fleas),"adult fleas (C. felis); oral 10 mg/kg, infested 3 hr after treatment, assessed 24 hr after infestation",12.3%
same,Flea inhibition (% of dead and damaged fleas),"adult fleas (C. felis); oral 10 mg/kg, infested 6 hr after treatment, assessed 1 hr after infestation",0-2%
same,Flea inhibition (% of dead and damaged fleas),"adult fleas (C. felis); oral 10 mg/kg, infested 6 hr after treatment, assessed 24 hr after infestation",6.7%
same,Flea inhibition (% of dead and damaged fleas),"adult fleas (C. felis); oral 10 mg/kg, infested 24 hr after treatment, assessed 1 hr after infestation",0-2%
same,Flea inhibition (% of dead and damaged fleas),"adult fleas (C. felis); oral 10 mg/kg, infested 24 hr after treatment, assessed 24 hr after infestation",7.7%
same,Flea inhibition (% of dead and damaged fleas),"adult fleas (C. felis); subcutaneous 10 mg/kg, infested 1 hr after treatment, assessed 1 hr after infestation",0-2%
same,Flea inhibition (% of dead and damaged fleas),"adult fleas (C. felis); subcutaneous 10 mg/kg, infested 1 hr after treatment, assessed 24 hr after infestation",1.0%
same,Flea inhibition (% of dead and damaged fleas),"adult fleas (C. felis); subcutaneous 10 mg/kg, infested 3 hr after treatment, assessed 1 hr after infestation",0-2%
same,Flea inhibition (% of dead and damaged fleas),"adult fleas (C. felis); subcutaneous 10 mg/kg, infested 3 hr after treatment, assessed 24 hr after infestation",15.7%
same,Flea inhibition (% of dead and damaged fleas),"adult fleas (C. felis); subcutaneous 10 mg/kg, infested 6 hr after treatment, assessed 1 hr after infestation",0-2%
same,Flea inhibition (% of dead and damaged fleas),"adult fleas (C. felis); subcutaneous 10 mg/kg, infested 6 hr after treatment, assessed 24 hr after infestation",97.7%
same,Flea inhibition (% of dead and damaged fleas),"adult fleas (C. felis); subcutaneous 10 mg/kg, infested 24 hr after treatment, assessed 1 hr after infestation",0-2%
same,Flea inhibition (% of dead and damaged fleas),"adult fleas (C. felis); subcutaneous 10 mg/kg, infested 24 hr after treatment, assessed 24 hr after infestation",94.3%
same,Flea inhibition (% of dead and damaged fleas),"adult fleas (C. felis); topical 100 ppm body weight, infested 1 hr after treatment, assessed 1 hr after infestation",0-2%
same,Flea inhibition (% of dead and damaged fleas),"adult fleas (C. felis); topical 100 ppm body weight, infested 1 hr after treatment, assessed 24 hr after infestation",100%
same,Flea inhibition (% of dead and damaged fleas),"adult fleas (C. felis); topical 100 ppm body weight, infested 3 hr after treatment, assessed 1 hr after infestation",0-2%
same,Flea inhibition (% of dead and damaged fleas),"adult fleas (C. felis); topical 100 ppm body weight, infested 3 hr after treatment, assessed 24 hr after infestation",94.3%
same,Flea inhibition (% of dead and damaged fleas),"adult fleas (C. felis); topical 100 ppm body weight, infested 6 hr after treatment, assessed 1 hr after infestation",0-2%
same,Flea inhibition (% of dead and damaged fleas),"adult fleas (C. felis); topical 100 ppm body weight, infested 6 hr after treatment, assessed 24 hr after infestation",100%
same,Flea inhibition (% of dead and damaged fleas),"adult fleas (C. felis); topical 100 ppm body weight, infested 24 hr after treatment, assessed 1 hr after infestation",0-2%
same,Flea inhibition (% of dead and damaged fleas),"adult fleas (C. felis); topical 100 ppm body weight, infested 24 hr after treatment, assessed 24 hr after infestation",76.7%
same,Flea efficacy,[1]; blood spiked at 1 ppm,100%
same,Flea efficacy,[1]; blood spiked at 10 ppm,100%
same,Flea efficacy,[1]; blood spiked at 100 ppm,100%
same,Efficacy against soft ticks (killed 24 hr after infestation),[2]; intraperitoneal 10 mg/kg,100% efficacy was observed up to Day 50.
same,Efficacy against soft ticks (killed 24 hr after infestation),[2]; oral 10 mg/kg,100% efficacy was observed up to Day 50.
same,Efficacy against soft ticks (killed 24 hr after infestation),[2]; subcutaneous 10 mg/kg,100% efficacy was observed up to Day 50.
same,Side effects,[3],No side effects were observed
same,Engorged R. sanguineus nymphs collected,[4],no nymphs were collected
same,Inhibition of engorged nymphs,[4],100%
same,Side effects,[5],No side effects were observed
same,Side effects,[6],No side effects were observed
same,Efficacy against bed bugs (killed 24 hr after infestation),"[7]; intraperitoneal 10 mg/kg, up to Day 18",100% efficacy was observed up to Day 18.
same,Efficacy against bed bugs (killed 24 hr after infestation),"[7]; oral 10 mg/kg, up to Day 18",100% efficacy was observed up to Day 18.
same,Efficacy against bed bugs (killed 24 hr after infestation),"[7]; subcutaneous 10 mg/kg, on Day 37",up to Day 35. 50% efficacy was observed
same,Mite infestation rate per mouse,"M. musculinus; oral 10 mg/kg, Day 1",+++
same,Mite infestation rate per mouse,"M. musculinus; oral 10 mg/kg, Day 6",++ to +++
same,Mite infestation rate per mouse,"M. musculinus; oral 10 mg/kg, Day 9",++ to +++
same,Mite infestation rate per mouse,"M. musculinus; oral 10 mg/kg, Day 13",+
same,Mite infestation rate per mouse,"M. musculinus; oral 10 mg/kg, Day 23",+
same,Mite infestation rate per mouse,"M. musculinus; subcutaneous 10 mg/kg, Day 1",+++
same,Mite infestation rate per mouse,"M. musculinus; subcutaneous 10 mg/kg, Day 6",2 mice: + to ++ and 1 mouse: +++
same,Mite infestation rate per mouse,"M. musculinus; subcutaneous 10 mg/kg, Day 9",2 mice: + to ++ and 1 mouse: +++
same,Mite infestation rate per mouse,"M. musculinus; subcutaneous 10 mg/kg, Day 13",+
same,Mite infestation rate per mouse,"M. musculinus; subcutaneous 10 mg/kg, Day 23",+ to ++
same,Mite infestation rate per mouse,"M. musculinus; topical 100 ppm body weight, Day 1",2 mice: + to ++ and 1 mouse: +++ (all
same,Mite infestation rate per mouse,"M. musculinus; topical 100 ppm body weight, Day 6",+ to ++
same,Mite infestation rate per mouse,"M. musculinus; topical 100 ppm body weight, Day 9",2 mice: none and 1 mouse: +
same,Mite infestation rate per mouse,"M. musculinus; topical 100 ppm body weight, Day 13",none
same,Mite infestation rate per mouse,"M. musculinus; topical 100 ppm body weight, Day 23",none
